Data set [1] concerns AI-2 synthesis. The settings on record: 100 μg/mL; cited from earlier work.
Data set [2] has as its system E. coli biofilm. The data set is described as follows: E. coli biofilm formation on stainless steel surface. The format is cell-based. To be noted: 60 μg/mL, non-toxic concentration.
The subject of data set [3] is AI-2 synthesis. The experiment in a line: AI-2 synthesis in E. coli, bioluminescence assay with reporter strain Vibrio harveyi BB 170. The format is cell-based. To be noted: 60 μg/mL. On the procedure: Biofilm formation relies on bacteria's secretion and sensing (quorum sensing) of signal molecules (called auto-inducer). […] Furanone #8 and 9 (60 μg/mL) inhibited AI-2 synthesis in E. coli 12.5- and 3.5-fold. […] 96: p. 1639-1644).

The test system of data set [4] is E. coli. The experiment in a line: E. coli cell growth (toxicity). The class given is cell-based. The settings on record: 60 μg/mL.

Molecules are shown by their SMILES.

On to `CCCCC1=C(Br)/C(=C\Br)OC1=O` [furanone #1], for which the “inhibition of AI-2 synthesis” value in data set [1] was 2 fold.
As for `CC1=CC(=C(Br)Br)OC1=O` [furanone #9], the “repression of E. coli biofilm formation, % of the surface coverage” value in data set [2] is 86%. The “inhibition of AI-2 synthesis in E. coli” value in data set [3] stood at 3.5 fold. Also, in data set [4], the “E. coli cell growth” value was “cell growth not affected”.
Take `O=C1O/C(=C/Br)C(Br)=C1CBr` [furanone #10]: the “repression of E. coli biofilm formation, % of the surface coverage” value in data set [2] was 91%. In data set [4], the “E. coli cell growth” value is recorded as “cell growth not affected”.
